Values quoted from earlier work as cited in US10188593B2, “Polysaccharide delivery particle” (Spray-Tek, Inc., priority 2016, dated 2019).

Details: perfume oil ingredients

Row | Octanol/water Partition Coefficient (logP) | Compound
1 | 1.85 | CC=Cc1ccc(O)c(OC)c1 [Isoeugenol]
2 | 2.64 | CCCCCCOC(C)=O [Hexyl_acetate]
3 | 3.06 | CCC=C(C)C(O)CCCCC (centres unmarked) [Undecavertol]
4 | 3.08 | C=CC(C)CCCC(C)(C)O (centres unmarked) [Dihydromyrcenol]
5 | 3.7 | CC(=O)OCCC(C)CCC=C(C)C (centres unmarked) [Citronellyl_acetate]
6 | 2.44 | C=CC(C)(O)CCC=C(C)C (centres unmarked) [Linalool]
7 | 3.59 | CC(C)c1cccc(C(C)CC=O)c1 (centres unmarked) [Florhydral]
8 | 2.81 | C=CCOC(=O)COCCC(C)C [Allyl_amyl_glycolate]
9 | 4.02 | CC(=O)/C=C/C1=C(C)CCCC1(C)C [beta-Ionone]
10 | 2.76 | CC(C)=CCCC(C)CCO (single isomer, unassigned; (-)) [(−)-Citronellol]

Row | Compound | Octanol/water Partition Coefficient (logP)
11 | CCOc1cc(C=O)ccc1O [Ethyl_vanillin] | 1.53
12 | CCCCCCCCCCCC#N [Lauronitrile] | 4.84
13 | C=C(C)[C@H]1CC=C(C)CC1 [d-Limonene] | 4.38
14 | CCOC(=O)C(C)CC (centres unmarked) [Ethyl_2-methylbutyrate] | 1.91
